Where a name gives a salt, the structure may show the parent alone. Read-outs that look alike come from different tables or passages of the source.
Assays:
[1] = molecular target: 5-HT2A (Homo sapiens (Human), UniProt P28223); experiment: 5-HT2A Gq-mediated calcium flux functional assay; type: cell-based
[2] = molecular target: 5-HT1A (Homo sapiens (Human), UniProt P08908); experiment: 5-HT1A Gi/o-mediated cAMP inhibition, GloSensor assay; type: cell-based
[3] = molecular target: 5-HT2B (Homo sapiens (Human), UniProt P41595); experiment: 5-HT2B Gq-mediated calcium flux functional assay; type: cell-based
[4] = molecular target: 5-HT2C (Homo sapiens (Human), UniProt P28335); experiment: 5-HT2C Gq-mediated calcium flux functional assay; type: cell-based
[5] = molecular target: Serotonin 5-HT2A (human) (Homo sapiens (Human), UniProt P28223); experiment: 5-HT2A receptor binding, [3H]-ketanserin competition in membrane fractions; conditions: for 5-HT2A pKi ± SEM: 1 nM [3H]-ketanserin, Cheng-Prusoff, N=1-3
[6] = cAMP inhibition, 0.2 μM isoproterenol, IA = Inactive
[7] = IA = Inactive, N=1-3, read-out: 5-HT2A-Ca2+ FLUX pEC50 (converted)
[8] = IA = Inactive, N=1-3, read-out: 5-HT2B-Ca2+ FLUX pEC50 (converted)
[9] = IA = Inactive, N=1-3, read-out: 5-HT2C-Ca2+ FLUX pEC50 (converted)

5-HT2B, sequence (P41595 whole entry): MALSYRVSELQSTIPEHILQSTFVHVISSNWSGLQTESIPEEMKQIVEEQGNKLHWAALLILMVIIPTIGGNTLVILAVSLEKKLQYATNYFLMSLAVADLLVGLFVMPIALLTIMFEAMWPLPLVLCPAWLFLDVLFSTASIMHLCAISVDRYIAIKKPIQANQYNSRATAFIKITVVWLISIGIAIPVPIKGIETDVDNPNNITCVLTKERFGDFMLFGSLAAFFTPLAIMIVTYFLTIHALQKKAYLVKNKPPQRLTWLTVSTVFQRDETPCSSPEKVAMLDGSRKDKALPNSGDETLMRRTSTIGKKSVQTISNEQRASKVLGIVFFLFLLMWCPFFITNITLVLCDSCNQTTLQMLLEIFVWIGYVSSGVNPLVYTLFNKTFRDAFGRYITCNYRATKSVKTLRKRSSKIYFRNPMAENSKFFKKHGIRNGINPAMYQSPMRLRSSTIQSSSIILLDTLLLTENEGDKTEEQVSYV
5-HT2C, sequence (P28335 whole entry, looked up): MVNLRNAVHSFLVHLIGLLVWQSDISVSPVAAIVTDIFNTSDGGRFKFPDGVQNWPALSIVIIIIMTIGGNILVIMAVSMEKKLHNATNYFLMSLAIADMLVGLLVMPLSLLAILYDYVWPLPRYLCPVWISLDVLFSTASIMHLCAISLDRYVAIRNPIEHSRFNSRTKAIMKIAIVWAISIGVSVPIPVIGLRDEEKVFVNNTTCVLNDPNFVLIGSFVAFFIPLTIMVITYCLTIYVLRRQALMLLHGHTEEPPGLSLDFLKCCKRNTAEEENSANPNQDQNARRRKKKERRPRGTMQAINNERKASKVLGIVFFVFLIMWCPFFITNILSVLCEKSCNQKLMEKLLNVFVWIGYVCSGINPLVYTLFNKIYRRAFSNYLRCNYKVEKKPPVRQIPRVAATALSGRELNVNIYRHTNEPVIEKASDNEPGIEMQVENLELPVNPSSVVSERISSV

Row | SMILES | melting point [°C] | 5-HT2A-Ca2+ FLUX Emax (% 5-HT) ([1]; IA = Inactive, N=1-3) | 5-HT1A-cAMP Emax (% 5-HT) [2, 6] [% 5-HT] | 5-HT2B-Ca2+ FLUX Emax (% 5-HT) ([3]; IA = Inactive, N=1-3) | 5-HT2C-Ca2+ FLUX Emax (% 5-HT) ([4]; IA = Inactive, N=1-3) | 5-HT2A pKi ± SEM [5] | EC50 [1] [µM] | EC50 [2] [µM] | EC50 [3] [µM] | EC50 [4] [µM] | other results
1 | CCN(C)CC(=O)c1c[nH]c2ccc(F)cc12 | 160.1 to 164.8 |  |  |  |  |  |  |  |  |  | 
2 | CC(C1CC1)N(C)CCc1c[nH]c2ccc(F)cc12 (stereo not drawn) (as salt: HCl) | 100.7 to 101.5 |  |  |  |  |  |  |  |  |  | 
3 | CCC(C)N(C)CCc1c[nH]c2ccc(F)cc12 (stereo not drawn) (as salt: HCl) [Example 3, N-(2-(5-fluoro-1H-indol-3-yl)ethyl)-N-methylbutan-2-amine] | 136.5 to 142 |  |  |  |  |  |  |  |  |  | 
4 | CCCN(CCc1c[nH]c2ccc(F)cc12)C(C)C (as salt: HCl) [Example 4, N-(2-(5-fluoro-1H-indol-3-yl)ethyl)-N-isopropylpropan-1-amine] | 155.8 to 158 |  |  |  |  |  |  |  |  |  | 
5 | CCCN(CCC)CCc1c[nH]c2ccc(F)cc12 (as salt: HCl) [Example 5, N-(2-(5-fluoro-1H-indol-3-yl)ethyl)-N-propylpropan-1-amine] | 187.5 to 188 |  |  |  |  |  |  |  |  |  | 
6 | CCCN(CC)CCc1c[nH]c2ccc(F)cc12 (as salt: HCl) [Example 6, N-ethyl-N-(2-(5-fluoro-1H-indol-3-yl)ethyl)propan-1-amine] | 154.5 to 155.4 |  |  |  |  |  |  |  |  |  | 
7 | C=CCN(CCc1c[nH]c2ccc(F)cc12)C(C)C (as salt: HCl) [Example 11, N-(2-(5-fluoro-1H-indol-3-yl)ethyl)-N-isopropylprop-2-en-1-amine] | 132 to 134 |  |  |  |  |  |  |  |  |  | 
8 | C=CCN(CCc1c[nH]c2ccc(F)cc12)C1CCC1 (as salt: HCl) [Example 14, N-allyl-N-(2-(5-fluoro-1H-indol-3-yl)ethyl)cyclobutanamine] | 196.3 to 199 |  |  |  |  |  |  |  |  |  | 
9 | C=CCN(CCc1c[nH]c2ccc(F)cc12)C(C)CC (stereo not drawn) (as salt: HCl) [compound 16, N-allyl-N-(2-(5-fluoro-1H-indol-3-yl)ethyl)butan-2-amine] | 157 to 161.8 |  |  |  |  |  |  |  |  |  | 
10 | CN(C)CCc1c[nH]c2ccc(F)cc12 [Compound 5-F-DMT] |  | 96.6 ± 1.0 | 94.2 ± 3.4 | 61.1 ± 2.0 | 100.3 ± 1.8 | 6.65 |  |  |  |  | 5-HT2A-Ca2+ FLUX pEC50 ([1]; IA = Inactive, N=1-3): 8.70 ± 0.03; 5-HT1A-cAMP pEC50 [2, 6]: 6.69 ± 0.08; 5-HT2B-Ca2+ FLUX pEC50 ([3]; IA = Inactive, N=1-3): 8.70 ± 0.11; 5-HT2C-Ca2+ FLUX pEC50 ([4]; IA = Inactive, N=1-3): 8.8 ± 0.06
11 | CC(C)N(C)CCc1c[nH]c2ccc(F)cc12 [Example 2, N-(2-(5-fluoro-1H-indol-3-yl)ethyl)-N-methylpropan-2-amine] |  | 95.1 ± 0.8 | 93.2 ± 4.7 | 68.6 ± 1.7 | 64.6 ± 1.7 | 6.36 ± 0.003 | 0.00195 | 1.82 | 0.00331 | 0.0219 | 
12 | CCCN(CCC)CCc1c[nH]c2ccc(F)cc12 [Example 5, N-(2-(5-fluoro-1H-indol-3-yl)ethyl)-N-propylpropan-1-amine] |  | 106.7 ± 0.8 | 87.5 ± 1.6 | 104.1 ± 0.7 | 109.3 ± 3.1 | 6.20 | 0.000724 | 0.0741 | 0.000759 | 0.00339 | 
13 | CCCN(CC)CCc1c[nH]c2ccc(F)cc12 [Example 6, N-ethyl-N-(2-(5-fluoro-1H-indol-3-yl)ethyl)propan-1-amine] |  | 103.5 ± 0.8 | 90.5 ± 1.8 | 101.2 ± 0.7 | 111.7 ± 2.5 | 6.06 ± 0.13 | 0.000776 | 0.049 | 0.0011 | 0.00178 | 
14 | C=CCN(C)CCc1c[nH]c2ccc(F)cc12 [Example 10, N-(2-(5-fluoro-1H-indol-3-yl)ethyl)-N-methylprop-2-en-1-amine] |  | 100.3 ± 2.2 | 97.8 ± 2.7 | 73.8 ± 2.3 | 97.4 ± 2.6 |  | 0.000479 | 0.0891 | 0.000955 | 0.00302 | Ki [5]: 0.309 µM
15 | C=CCN(CCc1c[nH]c2ccc(F)cc12)C(C)C [Example 11, N-(2-(5-fluoro-1H-indol-3-yl)ethyl)-N-isopropylprop-2-en-1-amine] |  | 105.4 ± 2.1 | 95.5 ± 1.7 | 98.8 ± 1.6 | 101.5 ± 2.8 |  | 0.000617 | 0.151 | 0.000794 | 0.0204 | 
16 | CCN(C)CCc1c[nH]c2ccc(F)cc12 [Example 12, N-ethyl-2-(5-fluoro-1H-indol-3-yl)-N-methylethan-1-amine] |  | 101.8 ± 1.1 | 91.1 ± 1.7 | 65.8 ± 1.6 | 117.2 ± 2.5 | 6.66 ± 0.12 | 0.00174 | 0.0759 | 0.00229 | 0.00158 | 
17 | C=CCN(CCc1c[nH]c2ccc(F)cc12)C(C)CC (stereo not drawn) [compound 16, N-allyl-N-(2-(5-fluoro-1H-indol-3-yl)ethyl)butan-2-amine] |  | 103.4 ± 1.8 | 94.2 ± 2.2 | 97.4 ± 1.7 | 84.3 ± 3.4 |  | 0.000871 | 0.166 | 0.00209 | 0.049 | Ki [5]: 1.66 µM
18 | CN(CCc1c[nH]c2ccc(F)cc12)C1CSC1 [compound 20, N-(2-(5-fluoro-1H-indol-3-yl)ethyl)-N-methylthietan-3-amine] |  | 61.8 ± 3.2 | 93.1 ± 2.5 | 17.3 ± 1.1 | 55.0 ± 2.8 |  |  | 0.794 |  |  | EC50 [1, 7]: 0.0288 µM; EC50 [3, 8]: 0.0024 µM; EC50 [4, 9]: 0.468 µM
19 | CCC(C)N(CC)CCc1c[nH]c2ccc(F)cc12 (stereo not drawn) [compound 30, N-ethyl-N-(2-(5-fluoro-1H-indol-3-yl)ethyl)butan-2-amine] |  | 93.2 ± 1.7 | 104.0 ± 3.1 | 83.8 ± 2.1 | 72.2 ± 2.9 | 5.70 ± 0.39 | 0.00245 | 0.468 | 0.00347 | 0.148 | 
20 | CCC(C)N(CCc1c[nH]c2ccc(F)cc12)C(C)C (stereo not drawn) [compound 32, N-(2-(5-fluoro-1H-indol-3-yl)ethyl)-N-isopropylbutan-2-amine] |  | 106.8 ± 1.7 | 88.5 ± 2.8 | 108.0 ± 1.8 | 101.5 ± 2.7 | 5.86 ± 0.16 | 0.00112 | 1.26 | 0.000955 | 0.0646 | 
21 | C=CCN(CC)CCc1c[nH]c2ccc(F)cc12 [compound 36, N-ethyl-N-(2-(5-fluoro-1H-indol-3-yl)ethyl)prop-2-en-1-amine] |  | 104.8 ± 2.0 | 98.4 ± 1.5 | 104.5 ± 2.0 | 101.5 ± 1.9 | 6.13 ± 0.08 | 0.0012 | 0.0562 | 0.00174 | 0.017 | 
22 | CC(C)N(CCc1c[nH]c2ccc(F)cc12)C1CCC1 [compound 40, N-(2-(5-fluoro-1H-indol-3-yl)ethyl)-N-isopropylcyclobutanamine] |  | 102.5 ± 2.0 | 102.1 ± 1.7 | 106.7 ± 1.5 | 94.9 ± 2.0 | 6.06 ± 0.05 | 0.000891 | 0.0661 | 0.0011 | 0.112 | 
23 | CCN(C)CCc1c[nH]c2cc(F)c(Cl)cc12 [compound 179, 2-(5-chloro-6-fluoro-1H-indol-3-yl)-N-ethyl-N-methylethan-1-amine] |  | 79.3 ± 0.7 |  | 67.8 ± 0.6 | 95.5 ± 1.0 | 6.93 | 0.0107 |  | 0.0107 | 0.0229 | 
24 | C#CCN(CCC)CCc1c[nH]c2c(F)cccc12 [compound 180, N-(2-(7-fluoro-1H-indol-3-yl)ethyl)-N-propylprop-2-yn-1-amine] |  | 80.7 ± 1.6 |  | 92.7 ± 1.2 | 56.5 ± 2.1 | 5.75 | 0.0794 |  | 0.038 | 0.631 | 
25 | CC(CN)c1c[nH]c2ccc(F)cc12 (stereo not drawn) [compound 187, 2-(5-fluoro-1H-indol-3-yl)propan-1-amine] |  | 90.7 ± 2.5 | 88.5 ± 2.8 | 89.0 ± 1.4 | 93.6 ± 0.9 | 5.41 |  | 0.933 |  |  | EC50 [1, 7]: 0.0363 µM; EC50 [3, 8]: 0.00126 µM; EC50 [4, 9]: 0.0186 µM

Reference: patent US20240286998A1, “F[…], ANALOGUES THEREOF, AND METHODS USING SAME” (Saint Joseph's University, priority 2021, published 2024)
